Laboratory results as given in patent US10383338B2, “Compositions and methods for making and using hydrolytic enzymes for degrading polysaccharides made by foodborne pathogenic bacteria” (University of Wyoming, priority 2014, dated 2019).

Key:
[1] = target: T1, Listeria monocytogenes PssE (Lmo0531), GGDEF domain (residues 107-285) containing the I-site, as MBP fusion (MBP::GGDEFpssE) (Listeria monocytogenes, UniProt Q8Y9J6); assay: Equilibrium dialysis of c-di-GMP binding to the PssE receptor (MBP-GGDEFpssE)
T1 construct: equilibrium dialysis
Text: FIGS. 5A-5B: In vitro assay of c-di-GMP binding by the PssE receptor. […] The GGDEF domain of PssE (residues 107-285) (“GGDEF” disclosed as SEQ ID NO: 3) containing the putative I-site was fused downstream of MBP, MBP::GGDEFpssE (“GGDEF” disclosed as SEQ ID NO: 3), and used in c-di-GMP binding assays. […] Shown is the dependence of the ratio of bound cdi-GMP per protein in the dialysis chamber, where protein alone was loaded, versus concentration of free c-di-GMP at equilibrium.
(§1) To test the prediction that the PssE protein acts as a c-di-GMP receptor, its GGDEF domain (“GGDEF” disclosed as SEQ ID NO: 3) containing the I-site as an MBP fusion (MBP-GGDEFpssE) (“GGDEF” disclosed as SEQ ID NO: 3) was overexpressed, and this protein was purified (FIG. 5A) and analyzed for its ability to bind c-di-GMP in vitro using equilibrium dialysis. […] This value falls within the range of physiologically relevant intracellular c-di-GMP concentrations measured in other bacteria that are believed to be in the submicromolar to low micromolar range. […] Therefore, PssE is a bonafide c-di-GMP receptor that is predicted to transfer the c-di-GMP signal to activate synthesis of the listerial Pss EPS.
For purification of MBP::PdeC and MBP::GGDEFpssE fusions (“GGDEF” disclosed as SEQ ID NO: 3), IPTG (final concentration, 0.2 mM) was added to exponentially (A600, 0.6-0.8) growing E. coli DH5α containing appropriate plasmids. After 2-h induction, cells were collected by centrifugation. Cell pellets were resuspended in a buffer containing 200 mM NaCl, 0.5 mM EDTA, 5 mM MgCl2, 20 mM Tris-HCl (pH 7.6), and 5% glycerol that also contained protease inhibitors. […]
(§2) Equilibrium dialysis experiments were performed as previously described. […] The nucleotide concentrations were quantified by HPLC. Binding constants were calculated by the GraphPad Prism software, version 4.03 (GraphPad Software, San Diego, Calif.) using a nonlinear regression model.

MBP-GGDEFpssE = assay: Equilibrium dialysis assay of c-di-GMP binding by the PssE receptor; set-up: species or system L. monocytogenes
Text: as §1
For purification of MBP::PdeC and MBP::GGDEFpssE fusions (“GGDEF” disclosed as SEQ ID NO: 3), IPTG (final concentration, 0.2 mM) was added to exponentially (A600, 0.6-0.8) growing E. coli DH5α containing appropriate plasmids. After 2-h induction, cells were collected by centrifugation. […]
as §2

L. monocytogenes = assay type: cell-based; details: hydrogen peroxide 200 mM, benzalkonium chloride 100 ppm; 10 min, room temperature
Experimental: Here, the role of L. monocytogenes EPS in providing tolerance to disinfection and desiccation was evaluated. […] To distinguish between the contribution of EPS versus EPS-independent c-di-GMP-responsive agents, included in the tests were the ΔpdeB/C/D ΔpssC mutant characterized by elevated intracellular c-di-GMP levels but defective in EPS production.
Cultures were grown in HTM with 3% glucose at 37° C. for 24 h, at which point small uniform clumps are formed by the ΔpdeB/C/D strain. Aliquots (250 μl; 10^8 cfu/ml) of these cultures were mixed with disinfectants at 1:1 vol ratios in small glass tubes that also contained 0.1 g of acid washed glass beads (Sigma Life Sciences). Following a 10-min exposure to disinfectants at room temperature, D/E neutralizing broth (500 μl; Difco) was added. Samples were vigorously vortexed (for 5 min) and clumps of the ΔpdeB/C/D strain were dispersed due to the action of the glass beads. Serial dilutions were plated on BHI agar and colonies were counted following a 48-h incubation at 37° C.

[2] = Solubility of listerial EPS preparations; assay type: physicochemical
Text: Considering that chitin, a polymer of β-1,4-linked N-acetylglucosamine, is also insoluble, but chitosan, which is obtained from chitin by N-deacetylation, is soluble in dilute acid, ManNAc-Gal EPS may also be made soluble by N-deacetylation. […] To identify the sugars belonging to the anomeric signals, a series of 2-D NMR spectra was acquired. COSY and TOCSY spectra were used to assign the proton chemical shifts, and an HSQC spectrum was obtained to assign the carbon chemical shifts of the monosaccharide residues present in EPS-N. The residues and their linkage positions were identified from the proton and carbon chemical shifts. A NOESY spectrum was used to determine the monosaccharide sequence. The spectra clearly identified one of the anomeric peaks as belonging to a terminal α-galactopyranose (α-Galp) residue (Table 3).
N-deacetylation was performed to obtain soluble EPS material for NMR studies. The insoluble EPS sample was suspended in 300 μl of 50% NaOH and heated to 80° C. for 1 h. After cooling to room temperature, the sample was diluted with 1 ml of water and acidified with glacial acetic acid (final pH˜4-5). The sample was dialyzed against running deionized water for 36 h using a 3,500 Da regenerated cellulose membrane and lyophilized. This material was designated ‘EPS-N’. EPS-N was dissolved in 5 ml of 0.4 M HCl and heated at 110° C. for 2 h for partial hydrolysis. […]

[3] = tested on: washed aggregates of strain ΔpdeB/C/D; assay: Dispersal of preformed cell aggregates; assay type: cell-based, L. monocytogenes
ΔpdeB/C/D strain = assay: Cell aggregation assay with added recombinant protein (prevention of aggregation of the growing strain); assay type: cell-based, L. monocytogenes; details: added to inoculum, HTM/G, 30° C., 24 h
[4] = Release of soluble carbohydrates from purified insoluble EPS (anthrone assay); assay type: biochemical, L. monocytogenes; details: 32 μg ml^−1 final concentration; ethanol precipitated EPS
Experimental: Next, purified insoluble ManNAc-Gal EPS was treated with PssZ and PssZ E72Q.
Total carbohydrates were determined using an anthrone assay. Dried EPS samples were transferred to 0.4 ml of water and mixed with an ethyl acetate solution containing anthrone reagent (2% w/v). Then, 1 ml of concentrated sulfuric acid was added to the mixture for color development. Samples were read at a wavelength of 620 nm, and glucose was used as a standard to estimate carbohydrate levels in the samples. Finally, dried EPS samples were sent to the Complex Carbohydrate Research Center (Athens, Ga., USA) for determination of monosaccharide composition, linkage, and NMR analysis.
The EPS hydrolytic activities of PssZ and PssZ E72Q were assessed by the ability of these proteins: (i) to prevent aggregation of the growing ΔpdeB/C/D strain in HTM/G medium, (ii) to disperse nongrowing ΔpdeB/C/D aggregates; and (iii) to release soluble carbohydrates from the purified insoluble EPS fibers. (i) Different concentrations (0.13 and 1.3 μg ml^−1) of the purified PssZ and PssZ E72Q proteins were added at the beginning of strain incubation. (ii) Aggregates were washed twice and resuspended in HTM salts-MOPS medium. Proteins were added to 1 ml of aggregate suspension (32 μg ml^−1, final concentration), and samples were incubated at 30° C. with gentle shaking. […]

[5] = Stability of PssZ hydrolytic activity on incubation; assay type: physicochemical; details: 3 day incubation at 30° C.
Text: In addition to biosynthesis proteins, the ManNAc-Gal EPS-specific glycosylhydrolase was identified and characterized. PssZ belongs to the GH8 family, whose members cleave β1-4 linkages through an inverting mechanism wherein carboxylate containing amino acid residues (i.e., Glu and Asp) perform the hydrolysis of glycosidic bonds. A conserved Glu residue present in the presumed catalytic site of PssZ was identified to be important for hydrolytic activity of PssZ (FIG. 17). The PssZ E72Q mutation largely, but not completely, abolished hydrolytic activity. […] A similar observation was reported for BcsZ, i.e., no hydrolytic activity was detected on carboxymethylcellulose in solution, whereas activity was shown on an agar plate containing carboxymethylcellulose. […] Given its relative stability, PssZ can be used for dispersing listerial EPS aggregates in food storage or processing plants, which would make listeria more susceptible to disinfectants. According to the results observed, listerial EPS-embedded aggregates are several orders of magnitude more tolerant to commonly used disinfectants than planktonic cells.

T1 sequence (Q8Y9J6 entry or part of it): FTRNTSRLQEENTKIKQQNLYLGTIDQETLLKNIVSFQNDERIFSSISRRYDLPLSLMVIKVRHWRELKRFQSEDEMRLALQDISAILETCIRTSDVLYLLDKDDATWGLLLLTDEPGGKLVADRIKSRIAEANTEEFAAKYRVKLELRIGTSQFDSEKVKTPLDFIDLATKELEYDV

Which Kd [1] does the source give for `Nc1nc2c(ncn2[C@@H]2O[C@@H]3COP(=O)(O)O[C@H]4[C@@H](O)[C@H](n5cnc6c(=O)[nH]c(N)nc65)O[C@@H]4COP(=O)(O)O[C@H]3[C@H]2O)c(=O)[nH]1` [c-di-GMP, Cyclic dimeric GMP] here?
The Kd was 790 ± 170 nM.

And the “Bmax (binding capacity)” value ([1]; equilibrium dialysis, 25 h at room temperature)?
The value was 2.03±0.12 μM c-di-GMP (μM protein)^−1.

And the “c-di-GMP molecules bound per PssE molecule at saturation” value ([1]; from Bmax)?
The value was “two”.

What about the Kd (MBP-GGDEFpssE; 25 h, room temperature, protein 20 μM, c-di-GMP 1 to 50 μM, read-out: apparent Kd) of the same molecule?
The Kd was 790 ± 170 nM.

And the “binding capacity, Bmax” value (MBP-GGDEFpssE; nonlinear regression)?
The value was 2.03±0.12 μM c-di-GMP (μM protein)^−1.

For `OO` [hydrogen peroxide], which “tolerance of ΔpdeB/C/D mutant compared to wild type or ΔpdeB/C/D ΔpssC mutant” value (L. monocytogenes) is on record?
The value was “approximately 10^2 fold”.

For benzalkonium chloride, which “tolerance of ΔpdeB/C/D mutant compared to wild type or ΔpdeB/C/D ΔpssC mutant” value (L. monocytogenes) is on record?
Its value is “approximately 10^2 fold”.

With “{4)-β-ManpNAc-(1-4)-[α-Galp-(1-6)]-β-ManpNAc-(1-} [ManNAc-Gal EPS]” as the molecule, how does the “solubility of native material” value [2] read?
The value was “completely insoluble”.

B1: PssZ: L. monocytogenes ManNAc-Gal EPS-specific glycosylhydrolase; SEQ ID NO: 1, purified fragment SEQ ID NO: 2 (protein)
chain: RPESKKTVSAPKETTPTSTSVQTYVKENYTAKNGLIMDYKNTEEPHYLAESIGLYMEYLVEVNDSKTFQKQVNHLEKYFIAEDNFIKWEATDSTTTNAIVDDFRITEALYQASEKFSFPSYKKMADKFLTNTKKYSAEQGVPVDFYDFVHKKKADTLHLSYLNIQAMQQINYRDKAYLPIQTINADPFFTEVFQNGQFKFADQKEVNMIDQMLIAIAYYDENGDIEPNFDNFLQTELASKGKIYARYQRETKKPSSENESTAVYAFLTQYFNKTNQAKNGKITKELLEKMDTSNPETTHFFDYINKEITLKK
modifications: His6 tag; Listeria monocytogenes
With B1 as the molecule, how does the “dispersal of preformed cell aggregates” value ([3]; 32 μg ml^−1 final concentration, 6 h, 30° C., HTM salts without carbon source) read?
The value was “dispersed cell aggregates almost completely”.

And the “presence of reducing sugars in supernatants after treatment of cell aggregates” value ([3]; supernatants after treatment of cell aggregates)?
Its value is “able to be detected”.

And the “inhibition of cell aggregation” value (ΔpdeB/C/D strain; 0.13 μg ml^−1 final concentration)?
Its value is “inhibited aggregation partially”.

What about the “inhibition of cell aggregation” value (ΔpdeB/C/D strain; 1.3 μg ml^−1 final concentration) of the same molecule?
The value was “inhibited it completely”.

And the “hydrolytic activity on purified insoluble EPS (anthrone assay)” value [4]?
The value was “did not detect any PssZ activity”.

And the “hydrolytic activity retained after incubation” value [5]?
The value was “retains partial hydrolytic activity”.
